# Experimental data reported in EP4635500A1, “THERAPEUTIC AGENT FOR BACTERIAL INFECTION” (Sumitomo Pharma Co., Ltd., priority 2022, dated 2024).
# Like-named read-outs stand apart in the source and are kept apart here.
# Experiments:
# A. baumannii = assay: MIC, broth microdilution, CDC/FDA Antibiotic Resistance Isolate Bank (Example 7, Tables 9, 13, 14); format: cell-based, Acinetobacter baumannii; details: for MIC: read-out: MIC
# P. aeruginosa = assay: MIC, broth microdilution, CDC/FDA Antibiotic Resistance Isolate Bank (Example 7, Tables 10, 15); format: cell-based; details: for MIC: Pseudomonas aeruginosa, read-out: MIC
# [1] = MIC distribution, metallo-β-lactamase-producing A. baumannii, inhibitor µg/mL in parentheses
# [2] = 26 metallo-carbapenemase-producing P. aeruginosa strains, β-lactamase inhibitor µg/mL in parentheses
# [3] = 96 strains of P. aeruginosa, β-lactamase inhibitor µg/mL in parentheses
smiles,measurement,setting,value
"CC(C)(O/N=C(\C(=O)N[C@@H]1C(=O)N2C(C(=O)[O-])=C(C[N+]3(CCNC(=O)c4ccc(O)c(O)c4Cl)CCCC3)CS[C@H]12)c1csc(N)n1)C(=O)O [Cefiderocol, cefiderocol]",MICrange,A. baumannii; 55 isolates of A. baumannii,≤0.06 to 16 µg/mL
same,MIC,"A. baumannii; Acinetobacter baumannii, A. baumannii KUB No. 5567, AR Bank #70, OXA-58, OXA-100",≤ 0.06 µg/mL
same,MIC,"A. baumannii; Acinetobacter baumannii, A. baumannii KUB No. 5575, AR Bank #78, OXA-71",4 µg/mL
same,MIC,"A. baumannii; Acinetobacter baumannii, A. baumannii KUB No. 5580, AR Bank #83, OXA-23, OXA-69, NDM-1",16 µg/mL
same,MIC,"A. baumannii; Acinetobacter baumannii, A. baumannii KUB No. 5585, AR Bank #88, OXA-64, NDM-1",2 µg/mL
same,MIC,"A. baumannii; Acinetobacter baumannii, A. baumannii KUB No. 5598, AR Bank #101, OXA-24, OXA-65",0.5 µg/mL
same,MIC,"A. baumannii; Acinetobacter baumannii, A. baumannii KUB No. 5599, AR Bank #102, OXA-66",0.12 µg/mL
same,MIC,"A. baumannii; Acinetobacter baumannii, A. baumannii KUB No. 5706, AR Bank #273, OXA-23, OXA-66",0.12 µg/mL
same,MIC,"A. baumannii; Acinetobacter baumannii, A. baumannii KUB No. 5707, AR Bank #274, OXA-66, OXA-72",0.12 µg/mL
same,MIC,"A. baumannii; Acinetobacter baumannii, A. baumannii KUB No. 5708, AR Bank #275, OXA-23, OXA-66",0.5 µg/mL
same,MIC,"A. baumannii; Acinetobacter baumannii, A. baumannii KUB No. 5709, AR Bank #276, no carbapenemase genes (-)",8 µg/mL
same,MIC,"A. baumannii; Acinetobacter baumannii, A. baumannii KUB No. 5710, AR Bank #277, OXA-24, OXA-65",4 µg/mL
same,MIC,"A. baumannii; Acinetobacter baumannii, A. baumannii KUB No. 5711, AR Bank #278, OXA-23, OXA-66",0.5 µg/mL
same,MIC,"A. baumannii; Acinetobacter baumannii, A. baumannii KUB No. 5712, AR Bank #279, OXA-23, OXA-66",0.25 µg/mL
same,MIC,"A. baumannii; Acinetobacter baumannii, A. baumannii KUB No. 5713, AR Bank #280, OXA-66",0.25 µg/mL
same,MIC,"A. baumannii; Acinetobacter baumannii, A. baumannii KUB No. 5714, AR Bank #281, OXA-82",0.12 µg/mL
same,MIC,"A. baumannii; Acinetobacter baumannii, A. baumannii KUB No. 5715, AR Bank #282, OXA-23, OXA-66",0.5 µg/mL
same,MIC,"A. baumannii; Acinetobacter baumannii, A. baumannii KUB No. 5716, AR Bank #283, OXA-23, OXA-66",0.25 µg/mL
same,MIC,"A. baumannii; Acinetobacter baumannii, A. baumannii KUB No. 5717, AR Bank #284, OXA-24, OXA-65",0.25 µg/mL
same,MIC,"A. baumannii; Acinetobacter baumannii, A. baumannii KUB No. 5718, AR Bank #285, OXA-24, OXA-65",1 µg/mL
same,MIC,"A. baumannii; Acinetobacter baumannii, KUB No. 5719, AR Bank #286",0.5 µg/mL
same,MIC,"A. baumannii; Acinetobacter baumannii, KUB No. 5720, AR Bank #287",0.5 µg/mL
same,MIC,"A. baumannii; Acinetobacter baumannii, KUB No. 5721, AR Bank #288",0.25 µg/mL
same,MIC,"A. baumannii; Acinetobacter baumannii, KUB No. 5722, AR Bank #259",0.12 µg/mL
same,MIC,"A. baumannii; Acinetobacter baumannii, KUB No. 5723, AR Bank #290",0.5 µg/mL
same,MIC,"A. baumannii; Acinetobacter baumannii, KUB No. 5724, AR Bank #291",0.5 µg/mL
same,MIC,"A. baumannii; Acinetobacter baumannii, KUB No. 5725, AR Bank #292",0.5 µg/mL
same,MIC,"A. baumannii; Acinetobacter baumannii, KUB No. 5726, AR Bank #293",0.5 µg/mL
same,MIC,"A. baumannii; Acinetobacter baumannii, KUB No. 5727, AR Bank #294",0.5 µg/mL
same,MIC,"A. baumannii; Acinetobacter baumannii, KUB No. 5728, AR Bank #295",0.5 µg/mL
same,MIC,"A. baumannii; Acinetobacter baumannii, KUB No. 5729, AR Bank #296",0.5 µg/mL
same,MIC,"A. baumannii; Acinetobacter baumannii, KUB No. 5730, AR Bank #297",0.12 µg/mL
same,MIC,"A. baumannii; Acinetobacter baumannii, KUB No. 5731, AR Bank #298",0.5 µg/mL
same,MIC,"A. baumannii; Acinetobacter baumannii, KUB No. 5732, AR Bank #299",8 µg/mL
same,MIC,"A. baumannii; Acinetobacter baumannii, KUB No. 5733, AR Bank #300",0.25 µg/mL
same,MIC,"A. baumannii; Acinetobacter baumannii, KUB No. 5734, AR Bank #301",1 µg/mL
same,MIC,"A. baumannii; Acinetobacter baumannii, KUB No. 5735, AR Bank #302",4 µg/mL
same,MIC,"A. baumannii; Acinetobacter baumannii, KUB No. 5736, AR Bank #303",0.12 µg/mL
same,MIC,"A. baumannii; Acinetobacter baumannii, KUB No. 5737, AR Bank #304",≤ 0.06 µg/mL
same,MIC,"A. baumannii; Acinetobacter baumannii, KUB No. 5738, AR Bank #305",0.25 µg/mL
same,MIC,"A. baumannii; Acinetobacter baumannii, KUB No. 5739, AR Bank #306",1 µg/mL
same,MIC,"A. baumannii; Acinetobacter baumannii, KUB No. 5740, AR Bank #307",0.12 µg/mL
same,MIC,"A. baumannii; Acinetobacter baumannii, KUB No. 5741, AR Bank #308",0.25 µg/mL
same,MIC,"A. baumannii; Acinetobacter baumannii, KUB No. 5742, AR Bank #309",4 µg/mL
same,MIC,"A. baumannii; Acinetobacter baumannii, KUB No. 5743, AR Bank #310",2 µg/mL
same,MIC,"A. baumannii; Acinetobacter baumannii, KUB No. 5744, AR Bank #311",0.5 µg/mL
same,MIC,"A. baumannii; Acinetobacter baumannii, KUB No. 5745, AR Bank #312",0.25 µg/mL
same,MIC,"A. baumannii; Acinetobacter baumannii, KUB No. 5746, AR Bank #313",1 µg/mL
same,MIC50,"A. baumannii; Acinetobacter baumannii, 55 isolates of A. baumannii, read-out: MIC50",0.5 µg/mL
same,MIC80,"A. baumannii; Acinetobacter baumannii, 55 isolates of A. baumannii, read-out: MIC80",2 µg/mL
same,MIC90,"A. baumannii; Acinetobacter baumannii, 55 isolates of A. baumannii, read-out: MIC90",4 µg/mL
same,Number of isolates at MIC 2 µg/mL,A. baumannii; [1],2
same,Number of isolates at MIC 16 µg/mL,A. baumannii; [1],1
same,MIC against 26 metallo-carbapenemase-producing strains MIC50,P. aeruginosa; [2],0.5 µg(mL)
same,MIC against 26 metallo-carbapenemase-producing strains MIC90,P. aeruginosa; [2],2 µg(mL)
same,MIC against 26 metallo-carbapenemase-producing strains MICrange,P. aeruginosa; [2],0.25 - 4 µg(mL)
same,MIC against 96 strains of P. aeruginosa MIC50,P. aeruginosa; [3],0.5 µg(mL)
same,MIC against 96 strains of P. aeruginosa MIC90,P. aeruginosa; [3],2 µg(mL)
same,MIC against 96 strains of P. aeruginosa MICrange,P. aeruginosa; [3],≤0.06 - 4 µg(mL)
same,MIC,"P. aeruginosa; P. aeruginosa KUB No. 579, AR Bank # 447",0.12 µg/mL
same,MIC,"P. aeruginosa; P. aeruginosa KUB No. 5083, AR Bank # 250",4 µg/mL
same,MIC,"P. aeruginosa; P. aeruginosa KUB No. 5551, AR Bank # 54",0.5 µg/mL
same,MIC,"P. aeruginosa; P. aeruginosa KUB No. 5561, AR Bank # 64",2 µg/mL
same,MIC,"P. aeruginosa; P. aeruginosa KUB No. 5587, AR Bank # 90",1 µg/mL
same,MIC,"P. aeruginosa; P. aeruginosa KUB No. 5589, AR Bank # 92",2 µg/mL
same,MIC,"P. aeruginosa; P. aeruginosa KUB No. 5591, AR Bank # 94",2 µg/mL
same,MIC,"P. aeruginosa; P. aeruginosa KUB No. 5592, AR Bank # 95",0.5 µg/mL
same,MIC,"P. aeruginosa; P. aeruginosa KUB No. 5597, AR Bank # 100",0.5 µg/mL
same,MIC,"P. aeruginosa; P. aeruginosa KUB No. 5600, AR Bank # 103",1 µg/mL
same,MIC,"P. aeruginosa; P. aeruginosa KUB No. 5602, AR Bank # 105",1 µg/mL
same,MIC,"P. aeruginosa; P. aeruginosa KUB No. 5605, AR Bank # 108",0.5 µg/mL
same,MIC,"P. aeruginosa; P. aeruginosa KUB No. 5607, AR Bank # 110",0.25 µg/mL
same,MIC,"P. aeruginosa; P. aeruginosa KUB No. 5608, AR Bank # 111",0.5 µg/mL
same,MIC,"P. aeruginosa; P. aeruginosa KUB No. 5662, AR Bank # 229",0.12 µg/mL
same,MIC,"P. aeruginosa; P. aeruginosa KUB No. 5663, AR Bank # 230",0.5 µg/mL
same,MIC,"P. aeruginosa; P. aeruginosa KUB No. 5664, AR Bank # 231",2 µg/mL
same,MIC,"P. aeruginosa; P. aeruginosa KUB No. 5665, AR Bank # 232",0.12 µg/mL
